Experimental data taken from PMC9590307, “Peptide ^Tat(48–60) YVEEL protects against necrotizing enterocolitis through inhibition of toll-like receptor 4-mediated signaling in a phosphatidylinositol 3-kinase/AKT dependent manner” (Frontiers in Nutrition, 2022).

Experiments:
Format in all cases: cell-based, human
[1] = system: TLR4-mediated signaling in FHC enterocytes; assay: qRT-PCR of IL-6 and COX-2 mRNA in LPS-treated enterocytes
[2] = system: PI3K/AKT pathway in FHC enterocytes; assay: Western blot of PI3K and AKT phosphorylation; settings: Ys49 2 and 5 μM with ^Tat(48–60) YVEEL 40 μM for 1 h, then LPS
Experimental: Cell pellets or intestinal tissues were lysed with RIPA buffer (Beyotime, China) for 20 min on ice and lysates were collected by centrifugation (13000 × g, 20 min at 4°C). Protein concentrations were quantified using the BCA Protein Assay (Thermo Fisher Scientific, USA) and equal amounts (20 μg) of protein lysates from each sample were separated by SDS-PAGE. Separated proteins were then transferred to PVDF membranes (Millipore, USA). Membranes were blocked with 5% skim milk or BSA and then incubated with the following primary antibodies: anti-TLR4 (Abcam, USA), anti-p-IκBα (Abcam, USA), anti-IκBα (Abcam, USA), anti-p-PI3K (Cell Signaling Technology, USA), anti-p-AKT (Cell Signaling Technology, USA), anti-PI3K (Cell Signaling Technology, USA), anti-AKT (Cell Signaling Technology, USA), anti-β-actin (Abcam, USA). Membranes were then incubated with species-matched HRP-conjugated secondary antibodies (Biosharp, China). Protein expressions were visualized using Immobilon® Western Chemiluminescent HRP Substrate (Millipore, USA) in accordance with the manufacturer’s protocol.

FHC cells = assay: In vitro enterocyte migration (scratch wound); settings: Ys49 2 and 5 μM with peptide 40 μM for 1 h, then LPS
Experimental: Cells were expected to reach a 100% confluence on the day of the experiment. Monolayers were scratched by a sterile pipette tip and washed for three times with pre-warmed 1 × PBS. The wounded monolayer of FHC or IEC-6 cells was imaged at indicated time using a microscope (Zeiss, Germany). The relative migration index of the cells was measured according to the area of the wound edge by Image J software (NIH Image, USA).

[3] = system: p65 subunit of NF-κB in FHC cells; assay: Immunofluorescence staining of NF-κB p65 nuclear translocation; settings: Ys49 2 and 5 μM with peptide 40 μM for 1 h, then LPS
Experimental: FHC cells were fixed, washed and blocked, and then incubated with the following primary antibodies: anti-NF-κB p65 (Cell Signaling Technology, USA) and […]. The Alexa Fluor® 488-labeled goat anti-rabbit secondary antibody was used (Cell Signaling Technology, USA). FHC cells were counterstained with DAPI (Sigma-Aldrich, USA) and visualized using a fluorescence microscope (Zeiss, Germany).

[4] = system: TLR4-mediated signaling in FHC enterocytes; assay: Western blot of TLR4-mediated signaling in LPS-treated enterocytes
[5] = Ys49 2 and 5 μM with ^Tat(48–60) YVEEL 40 μM for 1 h, then LPS
[6] = LY294002 10 μM in the absence or presence of ^Tat(48–60) YVEEL 40 μM, LPS

Oc1cc2c(cc1O)C(Cc1cccc3ccccc13)NCC2 (stereo not shown) [Ys49]
effect on protective effect of ^Tat(48–60) YVEEL on TLR4-mediated induction of pro-inflammatory cytokines (IL-6, COX-2 mRNA) [1, 5]: reversed
effect on inhibitory effects of ^Tat(48–60) YVEEL on PI3K/AKT pathway [2]: significantly abolished
effect on protective effect of ^Tat(48–60) YVEEL on enterocyte migration (FHC cells): attenuated
effect on blockage of TLR4-mediated cytoplasm-nucleus translocation of p65 by the peptide [3]: attenuated
effect on ^Tat(48–60) YVEEL-induced reduction of TLR4 expression [4, 5]: notably reversed
effect on ^Tat(48–60) YVEEL-induced reduction of p-IκBα expression [4, 5]: notably reversed

O=c1cc(N2CCOCC2)oc2c(-c3ccccc3)cccc12 [LY294002]
TLR4-induced mRNA expression of COX-2 [1, 6]: reduced
TLR4-induced mRNA expression of IL-6 [1, 6]: reduced
TLR4 protein expression, inhibition in the presence of ^Tat(48–60) YVEEL ([4]; LY294002 10 μM plus ^Tat(48–60) YVEEL 40 μM, LPS): more significant
TLR4 protein expression ([4]; LY294002 10 μM, LPS): could inhibit
